# Target: T1, human Prostaglandin D Synthase (GST2) (Homo sapiens, UniProt O60760)
# T1 construct: the open reading frame of human Prostaglandin D Synthase was amplified from cDNA; made in house; host or cells: E. coli TOP10F'
# Test: Homogeneous biochemical assay of human Prostaglandin D Synthase (GST2) based on its glutathion-S-transferase activity (GSH conjugation to monochlorobimane, fluorescence)
# Conditions: given beside the compound name in Examples 1 to 167; read-out: Potency Range (GST2 IC50)
# In short: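 N-His-tagged human PGD synthase from E. coli, assayed via its GST activity: GSH conjugation to monochlorobimane in 50 mM MES/KOH pH 6.1, 0.7 mM GSH, 2 mM MgCl2. Compounds at final picomolar to triple-digit micromolar concentrations.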
# T1 sequence (O60760 whole entry): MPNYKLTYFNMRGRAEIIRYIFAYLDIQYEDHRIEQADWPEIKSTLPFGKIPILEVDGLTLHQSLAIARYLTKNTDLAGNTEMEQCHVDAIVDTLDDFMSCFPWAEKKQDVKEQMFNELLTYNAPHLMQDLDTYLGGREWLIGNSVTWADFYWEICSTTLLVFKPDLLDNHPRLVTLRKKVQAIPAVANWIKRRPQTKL
row,SMILES,IC50
1,"O=C(Nc1nc(-c2ccncc2)cs1)N1CCN(C(=O)c2cccc(F)c2)CC1 [Compound 75, 4-(3-Fluoro-benzoyl)-piperazine-1-carboxylic acid (4-pyridin-4-yl-thiazol-2-yl)-amide]",101 to 1000 nM
2,"COC(=O)c1cccc(NC(=O)N2CCN(C(=O)c3cccc(F)c3)CC2)c1 [Compound 34, 3-{[4-(3-Fluoro-benzoyl)-piperazine-1-carbonyl]-amino}-benzoic acid methyl ester]",11 to 100 nM
3,"COC(=O)c1ccc(NC(=S)N2CCN(C(=O)c3ccccc3)CC2)cc1 [Compound 6, 4-[(4-Benzoyl-piperazine-1-carbothioyl)-amino]-benzoic acid methyl ester]",11 to 100 nM
4,"O=C(Nc1ccc(Oc2ccccc2)cc1)N1CCN(C(=O)c2cccc(F)c2)CC1 [Compound 26, 4-(3-Fluoro-benzoyl)-piperazine-1-carboxylic acid (4-phenoxy-phenyl)-amide]",11 to 100 nM
5,"O=C(Nc1ccc(N2CCOCC2)c(F)c1)N1CCN(C(=O)c2cccc(F)c2)CC1 [Compound 41, 4-(3-Fluoro-benzoyl)-piperazine-1-carboxylic acid (3-fluoro-4-morpholin-4-yl-phenyl)-amide]",11 to 100 nM
6,"O=C(Nc1cccc(-c2cccnc2)c1)N1CCN(C(=O)c2cccc(F)c2)CC1 [Compound 87, 4-(3-Fluoro-benzoyl)-piperazine-1-carboxylic acid (3-pyridin-3-yl-phenyl)-amide]",101 to 1000 nM
7,"O=C(Nc1cccc(NC(=O)N2CCN(C(=O)c3cccc(F)c3)CC2)c1)c1ccccn1 [Compound 107, 4-(3-Fluoro-benzoyl)-piperazine-1-carboxylic acid {3-[(pyridine-2-carbonyl)-amino]-phenyl}-amide]",11 to 100 nM
8,"O=C(Nc1ccc(NC(=O)N2CCN(C(=O)c3cccc(F)c3)CC2)cc1)C1CCOCC1 [Compound 124, 4-(3-Fluoro-benzoyl)-piperazine-1-carboxylic acid {4-[(tetrahydro-pyran-4-carbonyl)-amino]-phenyl}-amide]",101 to 1000 nM
9,"O=C(Nc1ccc(S(=O)(=O)N2CCOCC2)cc1)N1CCN(C(=O)c2cccc(F)c2)CC1 [Compound 91, 4-(3-Fluoro-benzoyl)-piperazine-1-carboxylic acid [4-(morpholine-4-sulfonyl)-phenyl]-amide]",11 to 100 nM
10,"O=C(Nc1ccc(C(F)(F)F)cc1)N1CCN(C(=O)c2ccccc2)CC1 [Compound 164, 4-Benzoyl-piperazine-1-carboxylic acid (4-trifluoromethyl-phenyl)-amide]",11 to 100 nM
11,"O=C(Nc1ccc(NS(=O)(=O)c2ccc(F)cc2)cc1)N1CCN(C(=O)c2cccc(F)c2)CC1 [Compound 128, 4-(3-Fluoro-benzoyl)-piperazine-1-carboxylic acid [4-(4-fluoro-benzenesulfonylamino)-phenyl]-amide]",11 to 100 nM
12,"O=C(Nc1ccc(Oc2cccnc2)nc1)N1CCN(C(=O)c2cccc(F)c2)CC1 [Compound 44, 4-(3-Fluoro-benzoyl)-piperazine-1-carboxylic acid [6-(pyridin-3-yloxy)-pyridin-3-yl]-amide]",101 to 1000 nM
13,"O=C(Nc1nc2ccc(OC(F)(F)F)cc2s1)N1CCN(C(=O)c2cccc(F)c2)CC1 [Compound 67, 4-(3-Fluoro-benzoyl)-piperazine-1-carboxylic acid (6-trifluoromethoxy-benzothiazol-2-yl)-amide]",11 to 100 nM
14,"O=C(c1cccc([N+](=O)[O-])c1)N1CCN(C(=S)Nc2ccc(N3CCOCC3)nc2)CC1 [Compound 153, 4-(3-Nitro-benzoyl)-piperazine-1-carbothioic acid (6-morpholin-4-yl-pyridin-3-yl)-amide]",101 to 1000 nM
15,"O=C(Nc1ccc(N2CCN(c3ccccn3)CC2)c(F)c1)N1CCN(C(=O)c2cccc(F)c2)CC1 [Compound 146, 4-(3-Fluoro-benzoyl)-piperazine-1-carboxylic acid [3-fluoro-4-(4-pyridin-2-yl-piperazin-1-yl)-phenyl]-amide]",11 to 100 nM
16,"Cc1nc(-c2ccc(NC(=O)N3CCN(C(=O)c4cccc(F)c4)CC3)cc2)cs1 [Compound 90, 4-(3-Fluoro-benzoyl)-piperazine-1-carboxylic acid [4-(2-methyl-thiazol-4-yl)-phenyl]-amide]",11 to 100 nM
17,"O=C(Nc1cccc(S(=O)(=O)N2CCOCC2)c1)N1CCN(C(=O)c2cccc(F)c2)CC1 [Compound 92, 4-(3-Fluoro-benzoyl)-piperazine-1-carboxylic acid [3-(morpholine-4-sulfonyl)-phenyl]-amide]",101 to 1000 nM
18,"O=C(c1ccccc1)N1CCN(C(=S)Nc2ccc([N+](=O)[O-])cc2)CC1 [Compound 3, 4-Benzoyl-piperazine-1-carbothioic acid (4-nitro-phenyl)-amide]",11 to 100 nM
19,"O=C(c1cccc(F)n1)N1CCN(C(=S)Nc2ccc(Oc3ccccc3)cc2)CC1 [Compound 17, 4-(6-Fluoro-pyridine-2-carbonyl)-piperazine-1-carbothioic acid (4-phenoxy-phenyl)-amide]",101 to 1000 nM
20,"O=C(Nc1ccc(C(=O)N2CCOCC2)c(F)c1)N1CCN(C(=O)c2cccc(F)c2)CC1 [Compound 97, 4-(3-Fluoro-benzoyl)-piperazine-1-carboxylic acid [3-fluoro-4-(morpholine-4-carbonyl)-phenyl]-amide]",101 to 1000 nM
21,"O=C(O)c1ccc(NC(=O)N2CCN(C(=O)c3cccc(F)c3)CC2)cc1 [Compound 100, 4-{[4-(3-Fluoro-benzoyl)-piperazine-1-carbonyl]-amino}-benzoic acid]",101 to 1000 nM
22,"O=C(Nc1nc2ccc(Cl)cc2s1)N1CCN(C(=O)c2cccc(F)c2)CC1 [Compound 82, 4-(3-Fluoro-benzoyl)-piperazine-1-carboxylic acid (6-chloro-benzothiazol-2-yl)-amide]",1 to 10 nM
23,"O=C(Nc1ccc(N2CCOCC2)c(Cl)c1)N1CCN(C(=O)c2cccc(F)c2)CC1 [Compound 38, 4-(3-Fluoro-benzoyl)-piperazine-1-carboxylic acid (3-chloro-4-morpholin-4-yl-phenyl)-amide]",11 to 100 nM
24,"O=C(Nc1nc2ccc(NS(=O)(=O)C3CC3)cc2s1)N1CCN(C(=O)c2cccc(F)c2)CC1 [Compound 137, 4-(3-Fluoro-benzoyl)-piperazine-1-carboxylic acid (6-cyclopropanesulfonylamino-benzothiazol-2-yl)-amide]",11 to 100 nM
25,"O=C(Nc1ccc(NS(=O)(=O)c2ccccc2)cc1)N1CCN(C(=O)c2cccc(F)c2)CC1 [Compound 125, 4-(3-Fluoro-benzoyl)-piperazine-1-carboxylic acid (4-benzenesulfonylamino-phenyl)-amide]",11 to 100 nM
26,"O=C(Nc1cccc([N+](=O)[O-])c1)N1CCN(C(=O)c2cccc(F)c2)CC1 [Compound 36, 4-(3-Fluoro-benzoyl)-piperazine-1-carboxylic acid (3-nitro-phenyl)-amide]",101 to 1000 nM
27,"NC(=O)c1ccc2nc(NC(=O)N3CCN(C(=O)c4cccc(F)c4)CC3)sc2c1 [Compound 141, 2-{[4-(3-Fluoro-benzoyl)-piperazine-1-carbonyl]-amino}-benzothiazole-6-carboxylic acid amide]",11 to 100 nM
28,"O=C(Nc1ccc(NC(=O)N2CCN(C(=O)c3cc(F)ccc3F)CC2)cc1)c1cccc[n+]1[O-] [Compound 118, 4-(2,5-Difluoro-benzoyl)-piperazine-1-carboxylic acid {4-[(1-oxy-pyridine-2-carbonyl)-amino]-phenyl}-amide]",11 to 100 nM

# From patent US20100234377A1 (priority 2007, published 2010)
